{
  "source": "patent EP3130590A1",
  "about": "“AROMATIC AZA COMPOUNDS AS VR1/TRPV1 LIGANDS” (Grünenthal GmbH, priority 2015, dated 2017)",
  "target": "T1, vanilloid receptor 1 (VR1/TRPV1 receptor) (Homo sapiens, UniProt Q8NER1)",
  "T1 construct": "expressed in transfected cells; host or cells: CHO K1",
  "T1 sequence (Q8NER1 whole entry)": "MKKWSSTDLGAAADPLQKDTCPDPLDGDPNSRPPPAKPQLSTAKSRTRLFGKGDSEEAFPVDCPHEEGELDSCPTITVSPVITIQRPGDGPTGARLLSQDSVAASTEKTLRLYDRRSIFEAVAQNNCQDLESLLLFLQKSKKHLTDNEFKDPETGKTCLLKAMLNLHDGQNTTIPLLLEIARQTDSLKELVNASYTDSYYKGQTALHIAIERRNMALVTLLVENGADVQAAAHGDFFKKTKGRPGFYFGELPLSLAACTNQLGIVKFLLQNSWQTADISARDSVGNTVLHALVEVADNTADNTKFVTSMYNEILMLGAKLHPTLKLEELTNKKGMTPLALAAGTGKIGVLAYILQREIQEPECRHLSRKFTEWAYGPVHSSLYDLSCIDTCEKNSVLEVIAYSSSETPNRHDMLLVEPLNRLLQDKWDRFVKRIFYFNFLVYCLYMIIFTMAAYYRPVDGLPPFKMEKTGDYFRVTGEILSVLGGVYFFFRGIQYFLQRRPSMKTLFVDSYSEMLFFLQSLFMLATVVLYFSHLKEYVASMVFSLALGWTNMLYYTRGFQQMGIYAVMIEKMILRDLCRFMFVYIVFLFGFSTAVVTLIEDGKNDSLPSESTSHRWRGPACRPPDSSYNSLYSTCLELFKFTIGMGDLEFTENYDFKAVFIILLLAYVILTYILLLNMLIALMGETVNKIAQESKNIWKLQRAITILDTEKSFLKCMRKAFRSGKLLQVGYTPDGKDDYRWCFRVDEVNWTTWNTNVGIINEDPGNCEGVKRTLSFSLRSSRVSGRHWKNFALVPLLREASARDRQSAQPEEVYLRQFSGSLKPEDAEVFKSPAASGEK",
  "test": "Functional testing on the vanilloid receptor 1 (FLIPR Ca2+ influx assay, capsaicin stimulation)",
  "assay_type": "cell-based",
  "details": "capsaicin (CAP) 100 nM; for inhibition at 1 µM: @ 1 µM test compound; for inhibition at 1 µM / inhibition at 5 µM: relative to maximum achievable inhibition with 10 µM capsazepine, read-out: inhibition (in %), column (f) Ki human [nM] CAP; for inhibition at 5 µM: @ 5 µM test compound",
  "protocol": "Furthermore, preference may be given to compounds according to the invention that cause a 50 per cent displacement of capsaicin, which is present at a concentration of 100 nM, in a FLIPR assay with CHO K1 cells which were transfected with the human VR1 gene at a concentration of less than 6,000 nM, preferably less than 5,000 nM, more preferably less that 3,000 nM or less than 1,000 nM and particularly preferably less than 300 nM, most particularly preferably less than 100 nM, even more preferably less than 75 nM, additionally preferably less than 50 nM, most preferably less than 10 nM.\nIn the process, the Ca^2+ influx is quantified in the FLIPR assay with the aid of a Ca^2+-sensitive dye (type Fluo-4, Molecular Probes Europe BV, Leiden, the Netherlands) in a fluorescent imaging plate reader (FLIPR, Molecular Devices, Sunnyvale, USA), as described hereinafter. […]\nThe FLIPR protocol consists of 2 substance additions. First the compounds to be tested (10 µM) are pipetted onto the cells and the Ca^2+ influx is compared with the control (capsaicin 10 µM). This provides the result in % activation based on the Ca^2+ signal after the addition of 10 µM of capsaicin (CP). After 5 min incubation, 100 nM of capsaicin are applied and the Ca^2+ influx is also determined. Desensitising agonists and antagonists lead to suppression of the Ca^2+ influx. The % inhibition is calculated compared to the maximum achievable inhibition with 10 µM of capsazepine.\nTriple analyses (n=3) are carried out and repeated in at least 3 independent experiments (N=4). Starting from the percentage displacement caused by different concentrations of the compounds to be tested of general formula I, IC50 inhibitory concentrations which cause a 50% displacement of capsaicin were calculated.\nKi values for the test substances were obtained by conversion by means of the Cheng-Prusoff equation (Cheng, Prusoff; Biochem. Pharmacol. 22, 3099-3108, 1973).\nThe affinity of selected compounds according to the invention for the vanilloid receptor 1 (VR1/TRPV1 receptor) was determined as described hereinbefore.\nThe value after the \"@\"symbol indicates the concentration at which the indicated inhibition (in %) was respectively determined.",
  "key": {"[1]": {"details": "functional (f), Ki from IC50 by Cheng-Prusoff equation, \"ne\" = did not show any effect in this assay"}},
  "data": [
    {"smiles": "CC1CCN(c2nc(C(F)(F)F)ccc2CNC(=O)C(C)C2CCCc3ccc(O)cc32)CC1", "note": "(stereo not drawn) [comp. no. 6, 2-(7-hydroxy-1,2,3,4-tetrahydronaphthalen-1-yl)-N-((2-(4-methylpiperidin-1-yl)-6-(trifluoromethyl)pyridin-3-yl)methyl)propanamide]", "values": [
      {"measurement": "Ki", "setting": "[1]", "result": 28.6, "unit": "nM"}
    ]},
    {"smiles": "CC1CCN(c2nc(C(F)(F)F)ccc2CNC(=O)NC2CCc3ccccc32)CC1", "note": "(stereo not drawn) [compound 1, 1-(2,3-dihydro-1H-inden-1-yl)-3-((2-(4-methylpiperidin-1-yl)-6-(trifluoromethyl)pyridin-3-yl)methyl)urea]", "values": [
      {"measurement": "(f) Ki human [nM] CAP", "setting": "[1]", "result": "ne"}
    ]},
    {"smiles": "CC1CCN(c2nc(C(F)(F)F)ccc2CNC(=O)NC2CCCc3ccccc32)CC1", "note": "(stereo not drawn) [compound 2, 1-((2-(4-methylpiperidin-1-yl)-6-(trifluoromethyl)pyridin-3-yl)methyl)-3-(1,2,3,4-tetrahydronaphthalen-1-yl)urea]", "values": [
      {"measurement": "inhibition at 1 µM", "result": 0, "unit": "%"},
      {"measurement": "inhibition at 5 µM", "result": 36, "unit": "%"}
    ]},
    {"smiles": "CC1CCN(c2nc(C(F)(F)F)ccc2CNC(=O)NC2Cc3ccccc3C2)CC1", "note": "[compound 3, 1-(2,3-dihydro-1H-inden-2-yl)-3-((2-(4-methylpiperidin-1-yl)-6-(trifluoromethyl)pyridin-3-yl)methyl)urea]", "values": [
      {"measurement": "inhibition at 1 µM", "result": 0, "unit": "%"},
      {"measurement": "inhibition at 5 µM", "result": 89, "unit": "%"}
    ]},
    {"smiles": "CC1CCN(c2nc(C(F)(F)F)ccc2CNC(=O)NC2CCCc3ccc(O)cc32)CC1", "note": "(stereo not drawn) [compound 4, 1-(7-hydroxy-1,2,3,4-tetrahydronaphthalen-1-yl)-3-((2-(4-methylpiperidin-1-yl)-6-(trifluoromethyl)pyridin-3-yl)methyl)urea]", "values": [
      {"measurement": "Ki", "setting": "[1]", "result": 6.1, "unit": "nM"}
    ]},
    {"smiles": "CC1CCN(c2nc(C(F)(F)F)ccc2CNC(=O)NC2CCCc3c2cnn3C)CC1", "note": "(stereo not drawn) [compound 5, 1-(1-methyl-4,5,6,7-tetrahydro-1H-indazol-4-yl)-3-((2-(4-methylpiperidin-1-yl)-6-(trifluoromethyl)pyridin-3-yl)methyl)urea]", "values": [
      {"measurement": "inhibition at 1 µM", "result": 0, "unit": "%"},
      {"measurement": "inhibition at 5 µM", "result": 27, "unit": "%"}
    ]}
  ]
}
